From ChEMBL document CHEMBL1130023, “Conformationally constrained [p-(omega-aminoalkyl)phenacetyl]-L-seryl-L-lysyl dipeptide amides as potent peptidomimetic inhibitors of Candida albicans and human myristoyl-CoA:protein N-myristoyl transferase” (J Med Chem, 1997)
Non-standard residues stand in square brackets, D forms with d. Residues, ends and D or L forms follow the SMILES beside them. *: point of attachment. Cha = N[C@@H](CC1CCCCC1)C(=O)O; Chg = N[C@H](C(=O)O)C1CCCCC1; NHPhenethyl = c1ccc(CCN*)cc1; 12Ado = NCCCCCCCCCCCC(=O)O; Aun = NCCCCCCCCCCC(=O)O; Ahp = NCCCCCCC(=O)O; βAla = NCCC(=O)O; Sar = CNCC(=O)O

Key:
[1] = biological target: T1, Glycylpeptide N-tetradecanoyltransferase (Candida albicans (strain SC5314 / ATCC MYA-2876) (Yeast), UniProt P30418); assay: Inhibitory activity against N-myristoyltransferase (NMT) of candida albicans
T1 sequence (P30418 whole entry): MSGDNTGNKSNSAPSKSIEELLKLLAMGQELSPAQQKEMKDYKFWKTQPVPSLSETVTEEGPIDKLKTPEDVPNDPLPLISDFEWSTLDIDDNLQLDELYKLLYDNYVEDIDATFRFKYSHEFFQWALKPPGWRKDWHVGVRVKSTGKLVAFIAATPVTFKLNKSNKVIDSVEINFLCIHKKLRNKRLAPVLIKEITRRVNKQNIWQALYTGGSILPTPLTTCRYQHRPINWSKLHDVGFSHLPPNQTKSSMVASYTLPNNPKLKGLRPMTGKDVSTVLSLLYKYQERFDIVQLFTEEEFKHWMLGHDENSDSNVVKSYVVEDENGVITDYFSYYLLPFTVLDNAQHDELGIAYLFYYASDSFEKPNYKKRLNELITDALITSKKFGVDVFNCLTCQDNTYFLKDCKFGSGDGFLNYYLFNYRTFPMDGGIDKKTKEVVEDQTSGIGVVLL

[2] = biological target: T2, Peptide N-myristoyltransferase (Homo sapiens, UniProt P30419+O60551); assay: Inhibition of human N-myristoyltransferase (NMT); format: protein assay
T2 sequence (P30419 whole entry): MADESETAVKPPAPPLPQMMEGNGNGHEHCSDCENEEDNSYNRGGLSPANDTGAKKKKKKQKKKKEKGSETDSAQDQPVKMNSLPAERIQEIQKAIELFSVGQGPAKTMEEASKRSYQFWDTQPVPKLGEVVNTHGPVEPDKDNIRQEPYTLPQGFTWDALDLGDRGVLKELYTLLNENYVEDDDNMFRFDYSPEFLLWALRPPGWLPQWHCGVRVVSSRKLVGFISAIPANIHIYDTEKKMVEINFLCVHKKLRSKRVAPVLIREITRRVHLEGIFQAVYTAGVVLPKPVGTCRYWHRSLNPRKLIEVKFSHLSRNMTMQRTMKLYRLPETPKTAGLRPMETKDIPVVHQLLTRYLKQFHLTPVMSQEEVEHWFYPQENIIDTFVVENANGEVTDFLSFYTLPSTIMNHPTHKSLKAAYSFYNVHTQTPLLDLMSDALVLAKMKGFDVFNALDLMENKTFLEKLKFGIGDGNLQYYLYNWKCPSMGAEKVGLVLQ
T2 sequence (O60551 whole entry): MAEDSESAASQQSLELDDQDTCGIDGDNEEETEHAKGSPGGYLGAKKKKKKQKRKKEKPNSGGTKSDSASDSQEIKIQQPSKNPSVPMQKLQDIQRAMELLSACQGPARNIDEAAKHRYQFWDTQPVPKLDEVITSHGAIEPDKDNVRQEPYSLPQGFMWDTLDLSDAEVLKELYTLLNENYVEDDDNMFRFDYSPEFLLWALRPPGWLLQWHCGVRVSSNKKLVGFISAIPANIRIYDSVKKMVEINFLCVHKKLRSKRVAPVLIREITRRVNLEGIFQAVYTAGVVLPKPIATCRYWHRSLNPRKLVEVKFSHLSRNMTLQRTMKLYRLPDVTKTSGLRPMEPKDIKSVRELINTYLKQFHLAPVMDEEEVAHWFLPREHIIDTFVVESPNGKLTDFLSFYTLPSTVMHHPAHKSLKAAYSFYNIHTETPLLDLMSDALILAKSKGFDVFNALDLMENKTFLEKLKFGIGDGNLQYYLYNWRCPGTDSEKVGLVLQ

[3] = Ratio of the IC50 against human NMT to the IC50 against Candida albicans NMT.
[4] = biological target: T2, Peptide N-myristoyltransferase; assay: The binding affinity was evaluated against the acyl transferase's peptide, N-myristoyltransferase binding site; format: protein assay
[5] = biological target: Glycylpeptide N-tetradecanoyltransferase (Candida albicans) (UniProt P30418); assay: The binding affinity was evaluated towards N-myristoyltransferase (NMT) in the presence of the peptide substrate GNAASARR-NH2

Row | Compound | IC50 [1] | other results
1 | NCCCCCc1ccc(CC(=O)N[C@@H](CO)C(=O)N[C@@H](CCCCN)C(=O)NCCC2CCCCC2)cc1 | 0.19 µM | IC50 [2]: 0.99 µM; Ratio [3]: 5.2
2 | CC(C)CNC(=O)[C@H](CCCCN)NC(=O)[C@H](CO)NC(=O)CCCCCCCCCCN | > 10 µM | 
3 | COC(=O)[C@H](CC(C)C)NC(=O)[C@H](CCCCN)NC(=O)[C@H](CO)NC(=O)CCCCCCCCCCN(C)C | 0.69 µM | 
4 | H-ALYASKLS-NH2 |  | Ki app [4]: 15.3 µM
5 | NCCCCCCc1ccc(CC(=O)N[C@@H](CO)C(=O)N[C@@H](CCCCN)C(=O)NCCC2CCCCC2)cc1 | 0.11 µM | IC50 [2]: 0.8 µM; Ratio [3]: 7.3; Ki [5]: 0.06 µM
6 | NCCCCCc1cccc(CC(=O)N[C@@H](CO)C(=O)N[C@@H](CCCCN)C(=O)NCCC2CCCCC2)c1 | 0.52 µM | IC50 [2]: 1.8 µM; Ratio [3]: 3.5
7 | CC(C)[C@H](NC(=O)[C@H](CCCCN)NC(=O)[C@H](CO)NC(=O)CCCCCCCCCCN)C(N)=O (H-[Aun]SKV-NH2) | 19 µM | 
8 | NCCCCCCCCCCC(=O)N[C@@H](CO)C(=O)N[C@@H](CCCCN)C(=O)N[C@H](C(N)=O)C1CCCCC1 (H-[Aun]SK[Chg]-NH2) | 0.76 µM | 
9 | COC(=O)[C@H](CC(C)C)NC(=O)[C@H](CCCCN)NC(=O)[C@H](CO)NC(=O)CCCCCCCCN | 5.2 µM | 
10 | NCCCCCCCCCCC(=O)N[C@@H](CO)C(=O)N[C@@H](CCCCN)C(=O)NCCCC1CCCCC1 | 1.3 µM | 
11 | NCCCCCCCCCCC(=O)N[C@@H](CO)C(=O)N[C@@H](CCCCN)C(=O)NCC(N)=O (H-[Aun]SKG-NH2) | 16 µM | 
12 | CC(C)C[C@H](NC(=O)CCN)C(=O)N[C@@H](Cc1ccc(O)cc1)C(=O)N[C@@H](C)C(=O)N[C@@H](CO)C(=O)N[C@@H](CCCCN)C(=O)N[C@@H](CC(C)C)C(=O)N[C@@H](CO)C(N)=O (H-[βAla]LYASKLS-NH2) | 110 µM | 
13 | CC(C(=O)N[C@@H](CO)C(=O)N[C@@H](CCCCN)C(=O)NCCC1CCCCC1)c1ccc(CCCCCCN)cc1 (stereo not given in full) | 0.043 µM | IC50 [2]: 0.79 µM; Ratio [3]: 18
14 | NCCCCCCCCCCC(=O)N[C@@H](CO)C(=O)N[C@@H](CCCCN)C(=O)NCCc1ccccc1 (H-[Aun]-Ser-Lys-NHPhenethyl) | 5 µM | 
15 | COC(=O)[C@H](CC(C)C)NC(=O)[C@H](CCCCN)NC(=O)[C@H](CO)NC(=O)CCCCCCN (H-[Ahp]SKL-OMe) | > 100 µM | 
16 | NCCCC[C@H](NC(=O)[C@H](CO)NC(=O)Cc1ccc(C#Cc2ccc(CN)cc2)cc1)C(=O)NCCC1CCCCC1 | > 10 µM | 
17 | CNCC(=O)N[C@@H](CC(C)C)C(=O)N[C@@H](Cc1ccc(O)cc1)C(=O)N(C)CC(=O)N[C@@H](CO)C(=O)N[C@@H](CCCCN)C(=O)N[C@@H](CC(C)C)C(=O)N[C@@H](CO)C(N)=O (H-[Sar]LY[Sar]SKLS-NH2) | 80 µM | 
18 | NCCCCCCCCc1ccc(CC(=O)N[C@@H](CO)C(=O)N[C@@H](CCCCN)C(=O)NCCC2CCCCC2)cc1 | 0.75 µM | IC50 [2]: 53 µM; Ratio [3]: 70

Row | Compound | IC50 [1] | other results
19 | CC(C)CCNC(=O)[C@@H](CCCCN)NC(=O)[C@@H](CO)NC(=O)CCCCCCCCCCN | 365 µM | 
20 | NCCCC[C@H](NC(=O)[C@H](CO)NC(=O)CCCCC#Cc1ccc(CN)cc1)C(=O)NCCC1CCCCC1 | 0.17 µM | IC50 [2]: 0.76 µM; Ratio [3]: 4.5
21 | CC[C@H](C)[C@H](NC(=O)[C@H](CCCCN)NC(=O)[C@H](CO)NC(=O)CCCCCCCCCCN)C(N)=O (H-[Aun]SKI-NH2) | 3.9 µM | 
22 | COC(=O)[C@H](CC(C)C)NC(=O)[C@H](CCCCN)NC(=O)[C@H](CO)NC(=O)CCCCCCCCCCN (H-[Aun]SKL-OMe) | 0.6 µM | 
23 | NCCCCCCCCCCC(=O)N[C@@H](CO)C(=O)N[C@@H](CCCCN)C(=O)N[C@@H](CC1CCCCC1)C(N)=O (H-[Aun]SK[Cha]-NH2) | 0.36 µM | 
24 | NCCCCCCCCCCC(=O)N[C@@H](CO)C(=O)N[C@@H](CCCCN)C(=O)NCCCC1CCCCCCC1 | 0.3 µM | IC50 [2]: 1.14 µM; Ratio [3]: 3.8
25 | COC(=O)[C@H](CC(C)C)NC(=O)[C@H](CCCCN)NC(=O)[C@H](CO)NC(=O)CCCCCCCCCN | 0.3 µM | 
26 | CC(C)C[C@H](NC(=O)[C@H](CCCCN)NC(=O)[C@H](CO)NC(=O)CCCCCCCCCCN)C(N)=O (stereo in doubt) | > 1000 µM | 
27 | CNCCCCCCCCCCC(=O)N[C@@H](CO)C(=O)N[C@@H](CCCCN)C(=O)N[C@@H](CC(C)C)C(=O)OC | 0.35 µM | 
28 | CC(C)CCNC(=O)[C@H](CCCCN)NC(=O)[C@H](CO)NC(=O)CCCCCCCCCCN | 0.78 µM | Ratio [3]: 0.5
29 | NCCCCCCCCCCC(=O)N[C@@H](CO)C(=O)N[C@@H](CCCCN)C(=O)N[C@@H](Cc1ccccc1)C(N)=O (H-[Aun]SKF-NH2) | 8.2 µM | 
30 | CC(C)(C)CCNC(=O)[C@H](CCCCN)NC(=O)[C@H](CO)NC(=O)CCCCCCCCCCN | 1.2 µM | 
31 | NCCCC[C@H](NC(=O)[C@H](CO)NC(=O)CCCCCCc1ccc(CN)cc1)C(=O)NCCC1CCCCC1 | 0.34 µM | IC50 [2]: 1.5 µM; Ratio [3]: 4.4
32 | C[C@H](NC(=O)[C@H](CCCCN)NC(=O)[C@H](CO)NC(=O)CCCCCCCCCCN)C(N)=O (H-[Aun]SKA-NH2) | 16 µM | 
33 | CC(C)C[C@H](NC(=O)[C@H](CCCCN)NC(=O)[C@H](CO)NC(=O)CCCCCCCCCCN)C(N)=O (stereo in doubt; 3a) | 1.2 µM | 
34 | NCCCC[C@H](NC(=O)[C@H](CO)NC(=O)Cc1ccc(CCc2ccc(CN)cc2)cc1)C(=O)NCCC1CCCCC1 | 0.75 µM | IC50 [2]: 62 µM; Ratio [3]: 83
35 | COC(=O)[C@H](CC(C)C)NC(=O)[C@H](CCCCN)NC(=O)[C@H](CO)NC(=O)CCCCCCCCCCCN (H-[12Ado]SKL-OMe) | 0.27 µM | 
